According to patent publication US20120309742A1, “USE OF METABOTROPIC GLUTAMATE RECEPTORS” (priority 2006, published 2012):
Counter-ions that a name gives are not always drawn.

target: T1, mGluR5 (Homo sapiens, UniProt P41594); experiment: inhibition of the glutamate induced elevation of intracellular Ca2+-concentration; assay type: cell-based; conditions: inhibition of glutamate induced elevation of intracellular Ca2+-concentration at a concentration of 10 μM
T1 construct: expressed in transfected cells
T1 sequence (P41594 21-1180 isoform P41594-2 limits assumed): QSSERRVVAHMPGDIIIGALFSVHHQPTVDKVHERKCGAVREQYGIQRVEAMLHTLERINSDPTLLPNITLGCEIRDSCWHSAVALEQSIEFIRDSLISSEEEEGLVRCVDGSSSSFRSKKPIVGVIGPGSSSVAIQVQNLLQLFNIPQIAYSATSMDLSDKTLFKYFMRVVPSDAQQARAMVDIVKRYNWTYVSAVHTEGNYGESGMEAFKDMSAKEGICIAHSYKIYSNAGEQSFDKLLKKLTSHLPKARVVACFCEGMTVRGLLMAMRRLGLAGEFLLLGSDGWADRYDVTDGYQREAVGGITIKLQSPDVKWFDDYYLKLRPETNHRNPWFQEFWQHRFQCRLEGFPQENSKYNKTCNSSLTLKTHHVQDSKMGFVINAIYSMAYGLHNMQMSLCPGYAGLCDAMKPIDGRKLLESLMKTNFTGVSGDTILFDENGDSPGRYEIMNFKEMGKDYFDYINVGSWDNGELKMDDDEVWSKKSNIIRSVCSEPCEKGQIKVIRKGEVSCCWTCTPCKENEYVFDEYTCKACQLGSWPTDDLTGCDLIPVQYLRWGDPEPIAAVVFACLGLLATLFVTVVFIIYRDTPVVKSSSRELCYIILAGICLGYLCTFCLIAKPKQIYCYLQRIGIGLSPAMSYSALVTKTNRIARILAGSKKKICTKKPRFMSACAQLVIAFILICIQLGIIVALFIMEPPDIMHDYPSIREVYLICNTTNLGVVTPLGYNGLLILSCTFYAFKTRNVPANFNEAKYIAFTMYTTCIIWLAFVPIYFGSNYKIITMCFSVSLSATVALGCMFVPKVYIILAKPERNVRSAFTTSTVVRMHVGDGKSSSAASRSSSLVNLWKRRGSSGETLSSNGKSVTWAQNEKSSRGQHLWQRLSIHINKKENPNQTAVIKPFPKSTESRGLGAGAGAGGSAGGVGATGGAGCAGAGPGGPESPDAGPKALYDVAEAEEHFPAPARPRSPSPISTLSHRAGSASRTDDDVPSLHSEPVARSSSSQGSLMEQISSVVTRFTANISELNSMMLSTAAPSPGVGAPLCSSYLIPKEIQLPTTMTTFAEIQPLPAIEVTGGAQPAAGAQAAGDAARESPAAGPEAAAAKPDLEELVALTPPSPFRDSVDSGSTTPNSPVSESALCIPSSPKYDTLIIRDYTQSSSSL
Description: This can be determined in vitro for example at recombinant human metabotropic glutamate receptors, especially PLC-coupled subtypes thereof such as mGluR5, using different procedures like, for example, measurement of the inhibition of the agonist induced elevation of intracellular Ca^2+ concentration in accordance with L. P. Daggett et al., Neuropharm.

Going from `Cc1ccc(Nc2ncc(C(=O)N3CCCC4CCCC43)cc2Cl)cn1` (centres unmarked) [Compound 4.25, [5-Chloro-6-(6-methyl-pyridin-3-ylamino)-pyridin-3-yl]-(octahydro-[1]pyrindin-1-yl)-methasone] to `CCC[C@H]1CCCCN1C(=O)c1cnc(Nc2ccc(C)nc2)c(Cl)c1` [Compound 4.35, [5-Chloro-6-(6-methyl-pyridin-3-ylamino)-pyridin-3-yl]-((S)-2-propyl-piperidin-1-yl)-methasone], the “mGluR5 Activity inh. at 10 μM [%]” value falls from 98% to 85%.

Compared with `CCC(CC)C1OCCCCN1C(=O)c1cnc(Nc2ccc(C)nc2)c(Cl)c1` (centres unmarked) [Compound 4.67], `CCOCC1CCCCN1C(=O)c1cnc(Nc2ccc(C)nc2)c(Cl)c1` (centres unmarked) [Compound 4.60, [5-Chloro-6-(6-methyl-pyridin-3-ylamino)-pyridin-3-yl]-(2-thoxymethyl-piperidin-1-yl)-methanone] is higher in “mGluR5 Activity inh. at 10 μM [%]” value: 95% for the first, 97% for the second.

First: O=C(c1ccc(Nc2ccc(Cl)cc2)nc1)N1C2CCC1CC(O)C2 (centres unmarked) [Compound 4.11, [6-(4-Chloro-phenylamino)-pyridin-3-yl]-(3-hydroxy-8-aza-bicyclo[3.2.1]oct-8-yl)-methasone]
Second: C[C@H]1CCCN(C(=O)c2ccc(Nc3ccc(Cl)cc3)nc2)C1 [Compound 1.12a, [6-(4-Chloro-phenylamino)-pyridin-3-yl]-(S-3-methyl-piperidin-1-yl)-methanone]
The “mGluR5 Activity inh. at 10 μM [%]” value of the first is lower: 51% for the first, 99% for the second.

`C/C=C\C1CCCCN1C(=O)c1cnc(Nc2ccc(C)nc2)c(Cl)c1` (centres unmarked) [Compound 4.56, [5-Chloro-6-(6-methyl-pyridin-3-ylamino)-pyridin-3-yl]-[((Z)-2-propenyl)-piperidin-1-yl]-methanone] and `Cc1ccc(Nc2ccc(C(=O)N3CCC[C@H](C)C3)cn2)cn1` [Compound 4.13a, (S-3-Methyl-piperidin-1-yl)-[6-(6-methyl-pyridin-3-ylamino)-pyridin-3-yl]-methanone] are the same in “mGluR5 Activity inh. at 10 μM [%]” value: 97% for the first, 97% for the second.

With `Cc1ccc(Nc2ccc(C(=O)N3CCCC(C)C3)cn2)cc1` (centres unmarked) [Compound 1.13] the “mGluR5 Activity inh. at 10 μM [%]” value was 96%.

same assay, conditions: read-out: mGluR5 Activity inh. at 10 μM [%]

First: Cc1ccc(Nc2ncc(C(=O)N3CCC[C@@H]4CCC[C@@H]43)cc2Cl)cn1 [Compound 4.26, [5-Chloro-6-(6-methyl-pyridin-3-ylamino)-pyridin-3-yl]-(4aS,7aS)-octahydro-[1]pyrindin-1-yl-methanone]
Second: COc1ccc(Nc2ccc(C(=O)N3C[C@@H](C)O[C@@H](C)C3)cn2)cc1 [Compound 1.21, (cis-2,6-Dimethyl-morpholin-4-yl)-[6-(4-methoxy-phenylamino)-pyridin-3-yl]-methanone hydrochloride]
The inhibition at 10 µM of the first is higher: 93% for the first, 57% for the second.
